Legend:
Hsc70 = Hsc70 immunoblot of IB3-1 whole cell lysates; type: cell-based, human; details: IB3-1 cells
Method: (§1) 3. Immunoblot analysis. Whole cell lysates were prepared by solubilization with 2% SDS at 95° C. Protein concentration in the lysates was determined using the Bio-Rad DC assay reagents with bovine plasma g-globulin as a standard (Bio-Rad Laboratories, Hercules, Calif.). Equal amounts of protein was resolved on 5, 7, 8, or 9% SDS-polyacrylamide gels. Proteins were transferred to nitrocellulose, and immunodetection was performed as previously described (25). Nonspecific binding was blocked by incubation of the nitrocellulose with 2% gelatin or 10% nonfat day milk. Primary antisera and secondary antibodies were applied in buffer containing 0.4% BSA overnight at 4° C. and for 1 h at room temperature, respectively. Detection of immunoreactivity was performed with the enhanced chemiluminescence reagent (ECL, Amer-sham) and fluorography. Recombinant bovine Hsc70 ([…]) was purchased from Stressgen Biotechnologies for use in constructing a standard curve of Hsc70 immunoreactivity. Immunoblots containing the bovine Hsc70 were probed with the Hsc70-specific polyclonal antiserum.

Hsp90 = Hsp90 immunoblot of IB3-1 lysates; type: cell-based, human; details: IB3-1 cells, increasing concentrations of 4-PBA
Method: as §1
(§2) Whether 4-PBA would regulate expression of a number of other molecular chaperones in IB3-1 cells (FIG. 2) was assessed next. […] Hsp90 is required for correct folding and function of a number of cellular proteins (16). […] Hsp70 (Hsp72) expression is induced by heat shock and the presence of denatured proteins within the eukaryotic cell (16). In Escherichia coli, the Hsp70 homologue DnaK and the Hsp40 homologue DnaJ act to promote protein folding (16). Hdj2 is the member of the Hsp40 family that specifically interacts with and regulates the ATPase activity of Hsc70. Hdj2 also interacts with CFTR during CFTR translation (26).
(§3) FIGS. 2A-2E are more specifically explained as follows. […]
(§4) FIGS. 5A-C are explained in more detail as follows. […] Cellular homogenates were prepared in 2% SDS as described in METHODS, and 5 μg of total cellular protein were analyzed by immunoblot for Hsc70 using rabbit polyclonal antiserum, Hsp90, Hsp70, Hsp40 as described above under General Comments. […]

Hsp70 = Hsp70 immunoblot of IB3-1 lysates; type: cell-based, human; details: IB3-1 cells
Method: as §1, §2
FIGS. 2A-2E are more specifically explained as follows. […] IB3-1 cells were treated as described for FIG. 1. Immunoblotting with 5 μg of IB3-1 SDS lysate protein was performed as described in the foregoing General Comments.
FIGS. 5A-C are explained in more detail as follows. […] A: IB3-1 cells were incubated at 37° C. for 2 days under indicated conditions. Cellular homogenates were prepared in 2% SDS as described in METHODS, and 5 μg of total cellular protein were analyzed by immunoblot for Hsc70 using rabbit polyclonal antiserum, Hsp90, Hsp70, Hsp40 as described above under General Comments. Con, control. B and C: densitometric analysis of Hsc70 expression (B) and Hsp90, Hsp70, and Hsp40 expression (C) was performed as described for FIG. 1. B: means 6 SE of density in 4 independent experiments.

Hsp40 = Hsp40 immunoblot of IB3-1 lysates; type: cell-based, human; details: IB3-1 cells, increasing concentrations of 4-PBA
Method: as §1, §2, §3, §4

Hdj2 = Hdj2 immunoblot of IB3-1 lysates; type: cell-based, human; details: IB3-1 cells, increasing concentrations of 4-PBA
Method: as §1
Whether 4-PBA would regulate expression of a number of other molecular chaperones in IB3-1 cells (FIG. 2) was assessed next. […] Hsp90 is required for correct folding and function of a number of cellular proteins (16). […]

ΔF508-CFTR/Hsc70 complex = experiment: Immunoprecipitation of Hsc70 and coimmunoprecipitation of CFTR from treated IB3-1 cells; type: cell-based, human; details: 2 days
CFTR [1] = experiment: CFTR immunoblot with anti-CFTR antibody 181 in IB3-1 cells; type: cell-based, human; details: increasing concentrations of 4-phenylbutyrate (FIG. 14)
Method: as §1
Control cells at 37° C. show band B CFTR, but virtually undetectable band C CFTR. These cells as expected show very little Hsp70, the heat shock inducible chaperone. At 27° C., a lower temperature, there is very little Hsp70 as expected, but as expected, there has been induction of band C CFTR.

CFTR [2] = details: IB3-1 cells; previously shown (ref. 30); cited from earlier work
CFTR [3] = details: homozygous ΔF508 patients taking the drug for 1 week; Rubenstein et al. 1998; cited from earlier work
[4] = growth medium, 37° C., 5% CO2; previously determined (ref. 30); cited from earlier work
[5] = set-up: fraction of administered 4-PBA excreted as PAG in the urine: unit not given here; details: cited from earlier work
[6] = administered 4-PBA; cited from earlier work
[7] = tested on: CF airway epithelial cells; details: Rubenstein et al. 1997; cited from earlier work
[8] = increasing concentrations of 4-PBA

With O=C(O)CCCc1ccccc1 [4-PBA, 4-phenylbutyric acid] the “decrease in Hsc70 immunoreactivity” value (Hsc70; 4-PBA 2 days, densitometry) was roughly 50%, the “total Hsc70 immunoreactivity in whole cell lysates” value (Hsc70; increasing concentrations of 4-PBA, 2 days) was “declined in a dose-dependent fashion” and the “expression of Hsp90” value (Hsp90) was “did not affect”. The “expression of Hsp70” value (Hsp70; increasing concentrations of 4-PBA (Example 1)) was “did not affect”, the Hsp70 expression (Hsp70; increasing concentrations of 4-phenylbutyrate (Example 11, FIG. 14)) was “induces Hsp70 in a dose-dependent manner” and the “expression of Hsp40” value (Hsp40) was “did not affect”. For the same molecule, the “expression of Hdj-2” value (Hdj2) was “did not affect”, the “4-PBA concentration at which CFTR was undetectable in the immunoprecipitates” value (ΔF508-CFTR/Hsc70 complex) was greater than 1 mM and the “immunoprecipitable Hsc70” value (ΔF508-CFTR/Hsc70 complex; [8]) was “decreased amounts”. The “immunoreactive CFTR recovered in complex with Hsc70” value (ΔF508-CFTR/Hsc70 complex; [8]) was “less immunoreactive CFTR was recovered”, the “band C CFTR” value (CFTR [1]) was “promotes appearance of band C CFTR” and the “4-PBA concentration leading to increased overall expression and appearance of mature CFTR” value (CFTR [2]) was greater than 0.1 mM. The “chloride transport in nasal potential difference measurements” value (CFTR [3]) was “increase chloride transport”, the “time for which a constant concentration is maintained under culture conditions” value [4] was “at least 2 days” and the “fraction of administered 4-PBA excreted as PAG in the urine” value ([5]; in vivo) was “Ninety”. For the same molecule, the “in vivo metabolic conversion” value ([5]; then conjugated with glutamine to phenacetylglutamine, excreted in urine (ref. 6)) was “rapidly and completely converted by β-oxidation to phenylacetate”, the toxicity [6] was “little toxicity beyond a slightly bitter taste, mild stomach discomfort or mild peripheral edema if severely anemic” and the cAMP-mediated chloride transport [7] was “promote functional correction of cAMP-medicated chloride transport”.

Source: US7557144B1, “Modulation of protein expression using carbocyclic aryl alkenoic acid derivatives” (The Johns Hopkins University, priority 2000, dated 2009)
